These results are taken from patent US4156724A, “N-acylamino-alpha-arylacetamido cephalosporins and antibacterial compositions and methods containing them” (Sumitomo Chemical Company, Limited, priority 1974, dated 1979).

Values after ≈ are worked out from the molar mass of the structure shown.

What all share (assay type): cell-based
Test [1] relates to Staphylococcus aureus 209 P. The experiment in a line: Minimum Inhibitory Concentration, Staphylococcus aureus 209 P. Particulars: Staphylococcus aureus 209 P; read-out: Minimum Inhibitory Concentration. The procedure: (§1) anti-microbial activity tests were carried out on the compounds obtained in the Examples.
Test [2] has as its system Staphylococcus aureus FS 289. The experiment in a line: Minimum Inhibitory Concentration, Staphylococcus aureus FS 289. Particulars: FS289; Staphylococcus aureus FS 289, strain resistant to penicillin; read-out: Minimum Inhibitory Concentration. The procedure: as §1
*Staphylococcus aureus FS 289: strain resistant to penicillin

The subject of the next test is Escherichia coli NIHJ. The experiment in a line: Minimum Inhibitory Concentration, Escherichia coli NIHJ. As to conditions: Escherichia coli NIHJ; read-out: Minimum Inhibitory Concentration. The procedure: as §1
The test system of test [3] is Klebsiella pneumoniae 602. The experiment in a line: Minimum Inhibitory Concentration, Klebsiella pneumoniae 602. As to conditions: Klebsiella pneumoniae, 602, Klebsiella pneumoniae 602; read-out: Minimum Inhibitory Concentration. The procedure: as §1
The next test has as its system Proteus vulgaris HX 19. Nature of the test: Minimum Inhibitory Concentration, Proteus vulgaris HX 19. Particulars: HX19; Proteus vulgaris HX 19; read-out: Minimum Inhibitory Concentration. The procedure: as §1
Test [4] deals with Pseudomonas aeruginosa 104. Nature of the test: Minimum Inhibitory Concentration, Pseudomonas aeruginosa 104. As to conditions: Pseudomonas aeruginosa 104; read-out: Minimum Inhibitory Concentration. The procedure: as §1
Another test relates to Serratia No. 72. The experiment in a line: Minimum Inhibitory Concentration, Serratia No. 72. The procedure: as §1
In test [5] the test system is Enterobacter aerogeneus No. 75. Nature of the test: Minimum Inhibitory Concentration, Enterobacter aerogeneus No. 75. As to conditions: Enterobacter aerogeneus No. 75; read-out: Minimum Inhibitory Concentration. The procedure:
as §1

Regarding `CSc1ncc2c(O)c(C(=O)NC(C(=O)NC3C(=O)N4C(C(=O)O)=C(CSc5nnnn5C)CSC34)c3ccc(O)cc3)nnc2n1` (stereo not drawn) [Example 173], the MIC came out at 0.78 mg/L (≈ 1.12 µM) in test [1]; 12.5 mg/L (≈ 17.9 µM) in test [2]; 12.5 mg/L (≈ 17.9 µM) in the test on Escherichia coli NIHJ; 6.25 mg/L (≈ 8.96 µM) in test [3]; 0.78 mg/L (≈ 1.12 µM) in the test on Proteus vulgaris HX 19; 6.25 mg/L (≈ 8.96 µM) in test [4]. The values for the MIC (against Serratia No. 72; in test [5]) were 50 mg/L (≈ 71.7 µM) and 25 mg/L (≈ 35.8 µM), respectively.

As for `Cn1nnnc1SCC1=C(C(=O)O)N2C(=O)C(NC(=O)C(NC(=O)c3cnc4ccc(O)nc4c3O)c3ccc(O)cc3)C2SC1` (stereo not drawn) [Example 174], the MIC in test [1] turned out to be 0.78 mg/L (≈ 1.17 µM); in test [2], 12.5 mg/L (≈ 18.8 µM); in the test with Escherichia coli NIHJ, 3.13 mg/L (≈ 4.7 µM); in test [3], 1.56 mg/L (≈ 2.34 µM); in the test on Proteus vulgaris HX 19 it was 0.39 mg/L (≈ 0.586 µM); in test [4], 3.13 mg/L (≈ 4.7 µM). Besides, the results for the MIC (in the test with Serratia No. 72; in test [5]) were 12.5 mg/L (≈ 18.8 µM) and 3.13 mg/L (≈ 4.7 µM), respectively.

As for `Cn1nnnc1SCC1=C(C(=O)O)N2C(=O)C(NC(=O)C(NC(=O)c3cnc4c(O)ccnc4c3O)c3ccc(O)cc3)C2SC1` (stereo not drawn) [Example 175], the MIC in test [1] stood at 0.78 mg/L (≈ 1.17 µM); in test [2], 12.5 mg/L (≈ 18.8 µM); in the test with Escherichia coli NIHJ, 3.13 mg/L (≈ 4.7 µM); in test [3], 3.13 mg/L (≈ 4.7 µM); with Proteus vulgaris HX 19, 0.39 mg/L (≈ 0.586 µM); in test [4] it was 3.13 mg/L (≈ 4.7 µM). Also, the MIC was determined as 12.5 mg/L (≈ 18.8 µM) against Serratia No. 72 and 6.25 mg/L (≈ 9.39 µM) in test [5].

With `O=C(O)C1=C(CSc2nnc(CO)s2)CSC2C(NC(=O)C(NC(=O)c3cnccc3O)c3ccc(O)cc3)C(=O)N12` (stereo not drawn) [Example 176], the MIC in test [1] is 0.39 mg/L (≈ 0.618 µM); in test [2], 6.25 mg/L (≈ 9.91 µM); in the test with Escherichia coli NIHJ, 6.25 mg/L (≈ 9.91 µM); in test [3], 6.25 mg/L (≈ 9.91 µM); with Proteus vulgaris HX 19, 0.2 mg/L (≈ 0.317 µM); in test [4] it was 12.5 mg/L (≈ 19.8 µM). Also, the MIC in the test with Serratia No. 72 amounted to 50 mg/L (≈ 79.3 µM); in test [5], 12.5 mg/L (≈ 19.8 µM).

`O=C(O)C1=C(CSc2ccc(O)nn2)CSC2C(NC(=O)C(NC(=O)c3cnccc3O)c3ccc(O)cc3)C(=O)N12` (stereo not drawn) [Example 177]: the MIC in test [1] stood at 0.39 mg/L (≈ 0.639 µM); in test [2], 6.25 mg/L (≈ 10.2 µM); with Escherichia coli NIHJ, 6.25 mg/L (≈ 10.2 µM); in test [3] it was 6.25 mg/L (≈ 10.2 µM); with Proteus vulgaris HX 19, 0.2 mg/L (≈ 0.328 µM); in test [4], 12.5 mg/L (≈ 20.5 µM). Besides, the MIC turned out to be 100 mg/L (≈ 164 µM) in the test with Serratia No. 72 and 12.5 mg/L (≈ 20.5 µM) in test [5].

`O=C(O)C1=C(CSc2nnc(CO)s2)CSC2C(NC(=O)C(NC(=O)c3cnc4cccnc4c3O)c3ccc(O)c(O)c3)C(=O)N12` (stereo not drawn) [Example 178]: the MIC in test [1] came out at 0.78 mg/L (≈ 1.12 µM); in test [2], 6.25 mg/L (≈ 8.96 µM); with Escherichia coli NIHJ it was 3.13 mg/L (≈ 4.49 µM); in test [3] it was 1.56 mg/L (≈ 2.24 µM); in the test with Proteus vulgaris HX 19 it was 0.2 mg/L (≈ 0.287 µM); in test [4], 3.13 mg/L (≈ 4.49 µM). For the same compound, the MIC worked out at 12.5 mg/L (≈ 17.9 µM) against Serratia No. 72 and 6.25 mg/L (≈ 8.96 µM) in test [5].

Consider `Cn1nnnc1SCC1=C(C(=O)O)N2C(=O)C(NC(=O)C(NC(=O)c3cnccc3O)c3ccc(O)c(Cl)c3)C2SC1` (stereo not drawn) [Example 179], for which the MIC in test [1] amounted to 0.39 mg/L (≈ 0.616 µM); in test [2] it was 6.25 mg/L (≈ 9.87 µM); in the test on Escherichia coli NIHJ, 6.25 mg/L (≈ 9.87 µM); in test [3] it was 6.25 mg/L (≈ 9.87 µM); with Proteus vulgaris HX 19, 0.39 mg/L (≈ 0.616 µM); in test [4] it was 12.5 mg/L (≈ 19.7 µM). Moreover, the results for the MIC (in the test with Serratia No. 72; in test [5]) were 50 mg/L (≈ 79 µM) and 12.5 mg/L (≈ 19.7 µM), respectively.

Take `Cn1nnnc1SCC1=C(C(=O)O)N2C(=O)C(NC(=O)C(NC(=O)c3cnc4cccnc4c3O)c3cccc(O)c3)C2SC1` (stereo not drawn) [Example 180]: the MIC in test [1] is 0.78 mg/L (≈ 1.2 µM); in test [2], 6.25 mg/L (≈ 9.62 µM); in the test on Escherichia coli NIHJ it was 3.13 mg/L (≈ 4.82 µM); in test [3], 1.56 mg/L (≈ 2.4 µM); in the test with Proteus vulgaris HX 19, 0.1 mg/L (≈ 0.154 µM); in test [4], 3.13 mg/L (≈ 4.82 µM). Further, the results for the MIC (in the test on Serratia No. 72; in test [5]) were 12.5 mg/L (≈ 19.2 µM) and 3.13 mg/L (≈ 4.82 µM), respectively.

On to `O=C(O)C1=C(CSc2nnc(CO)s2)CSC2C(NC(=O)C(NC(=O)c3cnc4cccnc4c3O)c3cccc(O)c3)C(=O)N12` (stereo not drawn) [Example 181], for which the MIC in test [1] came out at 0.78 mg/L (≈ 1.14 µM); in test [2], 6.25 mg/L (≈ 9.17 µM); in the test on Escherichia coli NIHJ it was 1.56 mg/L (≈ 2.29 µM); in test [3], 1.56 mg/L (≈ 2.29 µM); in the test on Proteus vulgaris HX 19, 0.2 mg/L (≈ 0.293 µM); in test [4], 3.13 mg/L (≈ 4.59 µM). Also, the MIC in the test on Serratia No. 72 stood at 12.5 mg/L (≈ 18.3 µM); in test [5], 6.25 mg/L (≈ 9.17 µM).
